Test systems include M19-MEL; SNB-78; RXF 631; HOP-18; NCI/ADR-RES; BT-549; MCF7; MDA-MB-231; Hs-578T.
Holding throughout (test): NCI anticancer screen, dose series, 48 h

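Protocol summary: plate cells (96-well), add compound at 5 concentrations, incubate 48 h, interpolate endpoints linearly. GI50 marks 50% less growth.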 The source made the active and inactive calls. No stated cut-off is given here; in the data, active = GI50 up to about 1.1 µM and inactive = higher.

For the compound `COc1ccc(C(=O)/C(=N/Nc2ccccc2)c2ccc(OC)cc2)cc1`, the GI50 is > 100 µM (inactive) with M19-MEL, > 100 µM (inactive) in the assay on SNB-78, 8.43 µM (inactive) in the assay on RXF 631 and > 100 µM (inactive) in the assay with HOP-18.

For the compound `Cc1ccc(S(=O)OCc2c(C)c(C)c(COS(=O)c3ccc(C)cc3)c(C)c2C)cc1` (centres undefined), the GI50 in the assay with M19-MEL is > 100 µM (inactive); in the assay with SNB-78, 31.6 µM (inactive); with HOP-18 it was > 100 µM (inactive).

Consider `CCOCN1COCN(C)C1=O`, for which the GI50 in the assay with M19-MEL, in the assay on SNB-78, with RXF 631 and in the assay with HOP-18 was > 100 µM (inactive) in each case.

As to `CCN(CC)/[N+]([O-])=N/OCC(C)O` (centres undefined), the GI50 with M19-MEL, in the assay with SNB-78 and with RXF 631 was > 100 µM (inactive) throughout.

As to `Oc1ccc(I)c2cccnc12`, the values for the GI50 in the assay with M19-MEL, in the assay with SNB-78 and in the assay on HOP-18 were 14.4 µM (inactive), 56.9 µM (inactive) and 8.07 µM (inactive), respectively.

For the compound `CC1CCC[P+](Cc2ccccc2)(c2ccccc2)CC1` (centres undefined), the GI50 in the assay on M19-MEL was 27.6 µM (inactive); in the assay with SNB-78, 48.3 µM (inactive); in the assay with RXF 631, > 100 µM (inactive); with HOP-18, 0.078 µM (active).

Regarding `CC(/C=C/c1ccccc1)=N\N=C(C)\C=C\c1ccccc1`, the GI50 in the assay on M19-MEL and in the assay with SNB-78 was > 100 µM (inactive) each time.

Regarding `CCC1C2C=CC(CC2)N1S(=O)(=O)c1ccc(C)cc1` (centres undefined), the GI50 is 31.4 µM (inactive) in the assay on M19-MEL and 27.4 µM (inactive) with RXF 631.

As for `COC(=O)/C(=N\NC(=O)c1ccccc1O)C(C#N)c1ccccc1` (centres undefined), the GI50 with M19-MEL is 30 µM (inactive); in the assay with SNB-78 it was 23.4 µM (inactive).

For `O=C(N/C(=C\c1cc(Cl)ccc1Cl)c1nc2ccccc2[nH]1)c1ccccc1`, the GI50 in the assay on M19-MEL is 30.5 µM (inactive); in the assay with SNB-78 it was 45.4 µM (inactive); in the assay on RXF 631, 22.3 µM (inactive).

`O=C(O/C(=C(/N=N/c1ccccc1)c1ccccc1)c1ccccc1)c1ccccc1`: the GI50 with SNB-78 was > 100 µM (inactive); in the assay on RXF 631 it was 16.7 µM (inactive); with HOP-18, > 100 µM (inactive).

For `CCOC(=O)c1c(N2CCCC2)[nH]c(=O)c(C(c2c(O)c(C(=O)OCC)c(N3CCCC3)[nH]c2=O)C(C)C)c1O`, the GI50 with NCI/ADR-RES was > 100 µM (inactive); in the assay with BT-549, 32.4 µM (inactive); in the assay with MCF7, > 100 µM (inactive); with MDA-MB-231 it was 21.7 µM (inactive); in the assay on Hs-578T it was 42.1 µM (inactive).

Take `COc1cc(OC)c(OC)cc1/C=N/NC(=O)N/N=C/c1cc(OC)c(OC)cc1OC`: the GI50 in the assay with M19-MEL, with SNB-78 and in the assay with HOP-18 was > 100 µM (inactive) each time.

As for `CCCN(CCCC(NC(C)=O)C(=O)NCc1ccccc1)C(=O)N(C)N=O` (centres undefined), the GI50 in the assay on M19-MEL and in the assay on SNB-78 was > 100 µM (inactive) in each case.

Consider `Cc1ccc(/C=C/C(=O)C(C)(C)CN2CCCCC2)cc1`, for which the GI50 was 11.8 µM (inactive) in the assay on M19-MEL, 7.29 µM (inactive) in the assay on SNB-78 and 14.5 µM (inactive) with RXF 631.

In the case of `O=C1CC2(CCNCC2)C(=O)N1N1CCOCC1`, the GI50 with NCI/ADR-RES, with BT-549, with MCF7, in the assay with MDA-MB-231 and in the assay on Hs-578T was > 100 µM (inactive) each time.

As to `C/C(=C/CC[C@](C)(OC1OC(CO)C(O)C(O)C1O)[C@H]1CC[C@]2(C)[C@@H]1CC[C@@H]1[C@@]3(C)CC[C@H](O)C(C)(C)[C@@H]3C[C@H](O)[C@]12C)CO` (some centres undefined), the GI50 in the assay on NCI/ADR-RES is 47.4 µM (inactive); in the assay with BT-549 it was 12.5 µM (inactive); in the assay with MCF7 it was 34.8 µM (inactive); in the assay on MDA-MB-231, 31.3 µM (inactive); in the assay with Hs-578T it was 16.2 µM (inactive).

With `Cc1ccc(NC(=O)C(=O)Cc2cc[n+]([O-])cc2)cc1`, the GI50 in the assay on M19-MEL, with SNB-78 and in the assay with HOP-18 was > 100 µM (inactive) throughout.

Regarding `Cc1c2ccccc2c(C)c2c3c(ccc12)C(=O)C=CC3=O`, the GI50 in the assay on M19-MEL is 17.1 µM (inactive); with SNB-78, 16.3 µM (inactive); with HOP-18 it was 23.8 µM (inactive).

As to `CCN(CC)c1ccc2c(c1)Oc1ccc(N(CC)CC)cc1C21Oc2ccccc2-c2c1c1ccccc1n2CC` (centres undefined), the GI50 with SNB-78 is 7.36 µM (inactive); in the assay on RXF 631 it was 6.1 µM (inactive); in the assay with HOP-18 it was 0.614 µM (active).

As for `COP(=O)(CC(=O)C1OC(C)(C)OC1C(O)COCc1ccccc1)OC` (centres undefined), the GI50 in the assay on M19-MEL, in the assay with SNB-78 and with HOP-18 was > 100 µM (inactive) throughout.

Regarding `C=CC/N=C1/N=C(CC(=O)OCC)CS1`, the GI50 in the assay with M19-MEL, in the assay on SNB-78 and with HOP-18 was > 100 µM (inactive) in each case.

As to `O=c1c2ccccc2n2n1CC(O)C2` (centres undefined), the GI50 is > 100 µM (inactive) with M19-MEL, 9.35 µM (inactive) with SNB-78 and > 100 µM (inactive) with HOP-18.

`COC1OC(CO)C(O)C1N` (centres undefined): the GI50 in the assay with SNB-78, in the assay with RXF 631 and with HOP-18 was > 100 µM (inactive) throughout.

`CC(=O)N(C)c1ccc2ncccc2c1[N+](=O)[O-]`: the GI50 in the assay with M19-MEL, with SNB-78 and in the assay with HOP-18 was > 100 µM (inactive) in each case.

For `COc1ccc(C#CCC(OC2OC(CO)C(O)C(O)C2O)C(O)c2ccc(OC)c(OC)c2)cc1OC` (centres undefined), the GI50 with SNB-78 and in the assay with HOP-18 was > 100 µM (inactive) each time.

`C=CCn1c(=O)ccn(/C(=C/C(=O)OCC)C(=O)OCC)c1=O`: the GI50 with NCI/ADR-RES was 21.3 µM (inactive); with BT-549, 15.7 µM (inactive); in the assay with MCF7 it was 3.94 µM (inactive); in the assay with MDA-MB-231 it was 9.82 µM (inactive); in the assay on Hs-578T, 22.5 µM (inactive).

Consider `ClC[Si]12OCCN(CCO1)CCO2`, for which the GI50 in the assay on SNB-78, in the assay with RXF 631 and in the assay on HOP-18 was > 100 µM (inactive) throughout.

Turning to `NNC(=O)N/N=C1\C(=O)N(c2nccs2)C(=O)C(=O)C1c1nc2ccccc2s1` (centres undefined), the GI50 in the assay on M19-MEL was > 100 µM (inactive); in the assay with SNB-78 it was > 100 µM (inactive); in the assay with RXF 631, > 100 µM (inactive); in the assay with HOP-18, 7.19 µM (inactive).

On to `CC(Oc1ccccc1Cl)C(=O)NN1C(=O)CSC1c1ccccc1` (centres undefined), for which the GI50 with NCI/ADR-RES is > 100 µM (inactive); with BT-549 it was > 100 µM (inactive); in the assay with MCF7, 92.3 µM (inactive); in the assay with MDA-MB-231 it was > 100 µM (inactive); with Hs-578T it was > 100 µM (inactive).

In the case of `Cc1ccc(C)c(NC2=NC(=O)C(CC(=O)Nc3ccc(Cl)cc3Cl)S2)c1` (centres undefined), the GI50 with M19-MEL was 59.4 µM (inactive); in the assay with HOP-18, > 100 µM (inactive).

As to `Cc1c(Cl)cccc1NC(=O)C(=O)C(C(=O)c1ccccc1-c1ccccc1)C1OC(=O)c2ccccc21` (centres undefined), the values for the GI50 in the assay on M19-MEL, in the assay on SNB-78 and in the assay on RXF 631 were 15.1 µM (inactive), 22.2 µM (inactive) and 23.7 µM (inactive), respectively.

On to `CN1CCC(O)C(CNC23CC4CC(CC(C4)C2)C3)C1` (centres undefined), for which the GI50 in the assay on M19-MEL, with SNB-78 and with RXF 631 was > 100 µM (inactive) throughout.

As for `CC(=O)NNc1nc(C)c(C(/C=C/c2ccc([N+](=O)[O-])cc2)=N/NC(N)=S)s1`, the GI50 with NCI/ADR-RES, in the assay with BT-549, with MCF7, in the assay with MDA-MB-231 and in the assay on Hs-578T was > 100 µM (inactive) each time.

In the case of `COc1ccc(-n2nnc(C(N)=O)c2O)cc1`, the GI50 in the assay with NCI/ADR-RES, in the assay with BT-549, with MCF7, in the assay with MDA-MB-231 and in the assay with Hs-578T was > 100 µM (inactive) throughout.

For the compound `C=C1[C@H](OC(=O)C(C)C)[C@]23CC4(O)[C@@H]5[C@@]6(C)CCC[C@]57C([C@@H]2C[C@@]1(O)[C@H](O)[C@@H]73)N4C6`, the GI50 with NCI/ADR-RES, in the assay with BT-549, in the assay on MCF7, in the assay with MDA-MB-231 and in the assay with Hs-578T was > 100 µM (inactive) in each case.

For `[C-]#[N+]C(C)(C)C[C@H]1CC(C)C2CCC(C)C3([N+]#[C-])CCC(=C)C1[C@H]23` (some centres undefined), the GI50 in the assay with M19-MEL was 1.5 µM (inactive); in the assay on SNB-78, 0.249 µM (active); in the assay on RXF 631 it was 1.86 µM (inactive); in the assay on HOP-18 it was 0.046 µM (active).

Turning to `Cn1c(=O)nc2n(-c3cc(Cl)ccc3Cl)c3ccccc3nc-2c1=O`, the values for the GI50 in the assay with M19-MEL, in the assay with SNB-78 and in the assay on HOP-18 were 1.35 µM (inactive), 13.5 µM (inactive) and 12.4 µM (inactive), respectively.

Take `CC(=O)OC(C)(C)[C@H]1O[C@]23O[C@]1(C)C[C@@H](C)[C@@H]2[C@@]1(C)CC[C@@]24C[C@@]25CC[C@H](O[C@@H]2OC[C@@H](O)[C@H](O)[C@H]2O)C(C)(C)[C@@H]5CC[C@H]4[C@]1(C)[C@H]3O`: the GI50 in the assay with NCI/ADR-RES is 7.73 µM (inactive); with BT-549, 16.3 µM (inactive); in the assay with MCF7, 5.38 µM (inactive); with MDA-MB-231, 4.61 µM (inactive); in the assay with Hs-578T, 17.4 µM (inactive).

On to `Cc1cc(Cl)ccc1Nc1sc(C(=O)c2cc3cc(Cl)ccc3o2)c(N)c1C#N`, for which the GI50 in the assay with NCI/ADR-RES is 1.82 µM (inactive); in the assay with BT-549, > 51.9 µM (inactive); in the assay with MCF7 it was 8.38 µM (inactive); in the assay on MDA-MB-231 it was 4.99 µM (inactive); with Hs-578T it was > 100 µM (inactive).

`COc1ccc(/C=C/c2cc(OC)c(OC)c(OC)c2)cc1`: the GI50 with M19-MEL is 9.95 µM (inactive); in the assay with SNB-78 it was 17.8 µM (inactive); with RXF 631, 3.73 µM (inactive).

Take `CC1(C)CC[C@]2(C(=O)O)CC[C@]3(C)[C@H](C(=O)C=C4[C@@]5(C)C=C(C#N)C(=O)C(C)(C)[C@@H]5CC[C@]43C)[C@@H]2C1` [BARDOXOLONE]: the GI50 with NCI/ADR-RES was 0.993 µM (active); with BT-549, 0.731 µM (active); in the assay on MCF7, 0.265 µM (active); in the assay with MDA-MB-231, 1.31 µM (inactive); in the assay on Hs-578T, 0.671 µM (active).

Turning to `C[C@@]12CCCc3coc(c31)C(=O)c1cc3c(cc12)C(=O)C=CC3=O` [XESTOQUINONE], the GI50 in the assay with M19-MEL is 13.8 µM (inactive); in the assay with HOP-18, 15 µM (inactive).
